Paper PMC4893628, “Chalcone-based Selective Inhibitors of a C4 Plant Key Enzyme as Novel Potential Herbicides” (Scientific Reports, 2016)
Like-named read-outs stand apart in the source and are kept apart here.

How the values were obtained:
[1] = test system: Pseudomonas putida KT2440; test: Bacterial growth in microscale cultivation, P. putida; assay type: cell-based; details: relative to control; for activity at 8 µM / activity at 80 µM / activity at 400 µM: Pseudomonas putida
Procedure: (§1) The following bacteria were cultivated in the presence of trans-chalcone derived inhibitors: Corynebacterium glutamicum ATCC13032[43], Escherichia coli K-12 MG1655[44], Pseudomonas putida KT2440[45], and Bacillus subtilis 168[46]. The growth of these bacteria was monitored in flower-well plates shaken at 1200 rpm as backscatter at 620 nm (gain 20) using a BioLector® microscale cultivation system (m2p labs, Baesweiler, Germany). For further experimental details please refer to the Supplementary Information.
(§2) medium or the appropriate minimal medium and shaken at 140 rpm overnight. For inoculation of
(§3) the main culture, cells equivalent to an optical density at 600 nm of 0.5 (C. glutamicum, E. coli,
(§4) and P. putida) or 0.25 (B. subtilis) in 800 µL medium were washed and resuspended in fresh
(§5) media. Inhibitor substances were dissolved in DMSO and added to the media to a final
(§6) Since the least polar trans-chalcone and 2’-hydroxychalcone precipitated in the growth media at
(§7) the highest concentrations, the maximal concentration of these compounds was reduced to 400
(§8) µM and 100 µM, respectively. The final backscatter at 620 nm, the growth rate (h-1), and the
(§9) duration of the lag phase of all cultures were determined in a BioLector microscale cultivation
(§10) system in comparison to negative controls supplemented with the solvent DMSO. A longer lag

[2] = test system: Escherichia coli K-12 MG1655; test: Bacterial growth in microscale cultivation, E. coli; assay type: cell-based; details: relative to control; for activity at 8 µM / activity at 80 µM / activity at 800 µM: Escherichia coli
Procedure: as §1, §2, §3, §4, §5, §6, §7, §8, §9, §10

F. trinervia PEPC = target: T1, F. trinervia PEPC (Flaveria trinervia, UniProt P30694); test: biochemical; assay type: biochemical
T1 construct: the full-length ppcA gene of PEPC from F. trinervia (EMBL-Bank X61304); made in house; host or cells: Escherichia coli BL21(DE3)
T1 sequence (P30694 1-966): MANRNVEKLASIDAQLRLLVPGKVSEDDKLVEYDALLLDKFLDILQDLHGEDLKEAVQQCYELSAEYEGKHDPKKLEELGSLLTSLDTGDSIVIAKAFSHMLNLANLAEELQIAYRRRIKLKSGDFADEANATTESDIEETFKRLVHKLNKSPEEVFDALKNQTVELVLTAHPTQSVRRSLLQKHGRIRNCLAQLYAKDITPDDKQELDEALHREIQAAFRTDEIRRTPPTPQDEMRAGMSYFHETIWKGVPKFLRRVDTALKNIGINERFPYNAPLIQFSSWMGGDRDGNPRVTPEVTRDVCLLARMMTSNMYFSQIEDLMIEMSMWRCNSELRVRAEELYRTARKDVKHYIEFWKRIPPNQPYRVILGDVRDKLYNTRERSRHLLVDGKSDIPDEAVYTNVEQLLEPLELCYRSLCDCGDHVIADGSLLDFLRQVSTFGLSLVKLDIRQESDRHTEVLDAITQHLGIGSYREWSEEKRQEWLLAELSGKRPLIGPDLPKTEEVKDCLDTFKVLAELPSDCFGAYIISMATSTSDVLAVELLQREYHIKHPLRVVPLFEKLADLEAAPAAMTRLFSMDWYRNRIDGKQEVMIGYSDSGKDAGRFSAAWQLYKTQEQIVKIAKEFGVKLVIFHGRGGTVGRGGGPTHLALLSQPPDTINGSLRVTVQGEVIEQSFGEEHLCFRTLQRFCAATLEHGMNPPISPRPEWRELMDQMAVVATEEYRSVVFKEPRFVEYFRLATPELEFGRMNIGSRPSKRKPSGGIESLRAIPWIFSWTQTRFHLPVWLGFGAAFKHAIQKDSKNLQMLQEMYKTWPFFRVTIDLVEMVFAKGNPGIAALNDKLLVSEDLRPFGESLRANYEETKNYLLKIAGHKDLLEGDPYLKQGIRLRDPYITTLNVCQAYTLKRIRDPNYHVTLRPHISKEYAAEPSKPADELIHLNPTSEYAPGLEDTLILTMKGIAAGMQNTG
Procedure: The IC50 values of small molecule compounds on F. pringlei and F. trinervia PEPCs were determined using PEPC coupled spectrophotometric assay. The amount of NADH oxidized by NADH-malate dehydrogenase was measured by the decrease in absorbance at 340 nm in a Beckman DU-800 spectrophotometer, thus the value is in proportion to the corresponding substrate conversion of the enzyme. […] The reactions were started by adding two folds of the Km value of PEP for each enzyme. The data were analyzed using GraFit (Erithacus Software, UK).

Bacillus subtilis 168 = test: Bacterial growth in microscale cultivation, B. subtilis; assay type: cell-based; details: for activity at 8 µM / activity at 80 µM / activity at 800 µM / activity at 160 µM / Lag Phase: relative to control
Procedure: as §1, §2, §3, §4, §5, §6, §7, §8, §9, §10

SMILES: O=C(/C=C/c1ccccc1)c1ccccc1 [Compound 1, trans-Chalcone]
- activity at 8 µM ([1]; KT2440, complex medium, 8 µM, read-out: Final Backscatter): 95.3%
- activity at 8 µM ([1]; KT2440, complex medium, 8 µM, read-out: Growth rate): 98.4%
- activity at 80 µM ([1]; KT2440, complex medium, 80 µM, read-out: Final Backscatter): 96.7%
- activity at 80 µM ([1]; KT2440, complex medium, 80 µM, read-out: Growth rate): 100%
- activity at 400 µM ([1]; KT2440, complex medium, 400 µM, read-out: Final Backscatter): 97.3%
- activity at 400 µM ([1]; KT2440, complex medium, 400 µM, read-out: Growth rate): 103%
- activity at 8 µM ([1]; KT2440, minimal medium, 8 µM, read-out: Final Backscatter): 94.4%
- activity at 8 µM ([1]; KT2440, minimal medium, 8 µM, read-out: Growth rate): 112%
- activity at 80 µM ([1]; KT2440, minimal medium, 80 µM, read-out: Final Backscatter): 94.2%
- activity at 80 µM ([1]; KT2440, minimal medium, 80 µM, read-out: Growth rate): 113%
- activity at 400 µM ([1]; KT2440, minimal medium, 400 µM, read-out: Final Backscatter): 100%
- activity at 400 µM ([1]; KT2440, minimal medium, 400 µM, read-out: Growth rate): 119%
- Lag Phase ([1]; complex medium, 8 µM): 100,6%
- Lag Phase ([1]; complex medium, 80 µM): 101,8%
- Lag Phase ([1]; complex medium, 400 µM): 103,0%
- Lag Phase ([1]; minimal medium, 8 µM): 98,9%
- Lag Phase ([1]; minimal medium, 80 µM): 99,3%
- Lag Phase ([1]; minimal medium, 400 µM): 98,1%
- activity at 8 µM ([2]; MG1655, complex medium, 8 µM, read-out: Final Backscatter): 99%
- activity at 8 µM ([2]; MG1655, complex medium, 8 µM, read-out: Growth rate): 105%
- activity at 80 µM ([2]; MG1655, complex medium, 80 µM, read-out: Final Backscatter): 97.4%
- activity at 80 µM ([2]; MG1655, complex medium, 80 µM, read-out: Growth rate): 109%
- activity at 800 µM ([2]; MG1655, complex medium, 800 µM, read-out: Final Backscatter): 108%
- activity at 800 µM ([2]; MG1655, complex medium, 800 µM, read-out: Growth rate): 94.7%
- activity at 8 µM ([2]; MG1655, minimal medium, 8 µM, read-out: Final Backscatter): 100%
- activity at 8 µM ([2]; MG1655, minimal medium, 8 µM, read-out: Growth rate): 97.5%
- activity at 80 µM ([2]; MG1655, minimal medium, 80 µM, read-out: Final Backscatter): 95.1%
- activity at 80 µM ([2]; MG1655, minimal medium, 80 µM, read-out: Growth rate): 104%
- activity at 800 µM ([2]; MG1655, minimal medium, 800 µM, read-out: Final Backscatter): 103%
- activity at 800 µM ([2]; MG1655, minimal medium, 800 µM, read-out: Growth rate): 107%
- Lag Phase ([2]; complex medium, 8 µM): 102,4%
- Lag Phase ([2]; complex medium, 80 µM): 102,4%
- Lag Phase ([2]; complex medium, 800 µM): 101,2%
- Lag Phase ([2]; minimal medium, 8 µM): 99,1%
- Lag Phase ([2]; minimal medium, 80 µM): 101,8%
- Lag Phase ([2]; minimal medium, 800 µM): 97,8%
- Selectivity C4/C3 (F. trinervia PEPC; C4 PEPC over C3 isoform): 1.5 fold
- IC50 (F. trinervia PEPC; IC50 F. trinervia PEPC, C4 PEPC): 77.5 ± 2.7 µM
- activity at 8 µM (Bacillus subtilis 168; Bacillus subtilis, 168, complex medium, 8 µM, read-out: Final Backscatter): 95.4%
- activity at 8 µM (Bacillus subtilis 168; Bacillus subtilis, 168, complex medium, 8 µM, read-out: Growth rate): 115%
- activity at 80 µM (Bacillus subtilis 168; Bacillus subtilis, 168, complex medium, 80 µM, read-out: Final Backscatter): 99%
- activity at 80 µM (Bacillus subtilis 168; Bacillus subtilis, 168, complex medium, 80 µM, read-out: Growth rate): 119%
- activity at 800 µM (Bacillus subtilis 168; Bacillus subtilis, 168, complex medium, 800 µM, read-out: Final Backscatter): 103%
- activity at 800 µM (Bacillus subtilis 168; Bacillus subtilis, 168, complex medium, 800 µM, read-out: Growth rate): 130%
- activity at 8 µM (Bacillus subtilis 168; Bacillus subtilis, 168, minimal medium, 8 µM, read-out: Final Backscatter): 89.6%
- activity at 8 µM (Bacillus subtilis 168; Bacillus subtilis, 168, minimal medium, 8 µM, read-out: Growth rate): 118%
- activity at 80 µM (Bacillus subtilis 168; Bacillus subtilis, 168, minimal medium, 80 µM, read-out: Final Backscatter): 88.8%
- activity at 80 µM (Bacillus subtilis 168; Bacillus subtilis, 168, minimal medium, 80 µM, read-out: Growth rate): 105%
- activity at 160 µM (Bacillus subtilis 168; Bacillus subtilis, 168, minimal medium, 160 µM, read-out: Final Backscatter): 89.5%
- activity at 160 µM (Bacillus subtilis 168; Bacillus subtilis, 168, minimal medium, 160 µM, read-out: Growth rate): 97.3%
- activity at 800 µM (Bacillus subtilis 168; Bacillus subtilis, 168, minimal medium, 800 µM, read-out: Final Backscatter): 83.6%
- activity at 800 µM (Bacillus subtilis 168; Bacillus subtilis, 168, minimal medium, 800 µM, read-out: Growth rate): 93.3%
- Influence on bacterial growth (Bacillus subtilis 168; Minimal medium, highest concentration tested (10× IC50) if not stated otherwise): lag↑ (2× IC50)
- Lag Phase (Bacillus subtilis 168; complex medium, 8 µM): 103,5%
- Lag Phase (Bacillus subtilis 168; complex medium, 80 µM): 103,5%
- Lag Phase (Bacillus subtilis 168; complex medium, 800 µM): 101,2%
- Lag Phase (Bacillus subtilis 168; minimal medium, 8 µM): 111,6%
- Lag Phase (Bacillus subtilis 168; minimal medium, 80 µM): 109,9%
- Lag Phase (Bacillus subtilis 168; minimal medium, 160 µM): 110,6%
- Lag Phase (Bacillus subtilis 168; minimal medium, 800 µM): 121,3%
